Experiments:
Candida albicans [1] = test: Antifungal activity against wild type-Candida albicans ATCC 32354 after 14 to 16 hrs; assay type: functional
Candida albicans [2] = test: Antifungal activity against amphotericin-B-resistant Candida albicans ATCC 90873 after 14 to 16 hrs; assay type: functional
HCT-116 = test: Cytotoxicity against human HCT116 cells after 72 hrs; assay type: cell-based; conditions: HCT-116, 72 h

| Structure (SMILES) | MIC (Candida albicans [1]) | MIC (Candida albicans [2]) | IC50 (HCT-116) |
| --- | --- | --- | --- |
| CC(C)C/C=C/[C@@H](C)[C@H]1CC[C@@H]2[C@]1(C)CC[C@H]1[C@@]23C[C@@H](O)[C@@]2(O)C[C@@H](OS(=O)(=O)[O-])CC[C@]12CO3.[Na+] [EURYSTEROL B] | 62.5 µg/mL | 62.5 µg/mL | 14.3 µg/mL |
| CC(C)CCC[C@@H](C)[C@H]1CC[C@@H]2[C@]1(C)CC[C@H]1[C@@]23C[C@@H](O)[C@@]2(O)C[C@@H](OS(=O)(=O)[O-])CC[C@]12CO3.[Na+] [EURYSTEROL A] | 15.6 µg/mL | 15.6 µg/mL | 2.9 µg/mL |

Source: ChEMBL document CHEMBL1147122, “Eurysterols A and B, cytotoxic and antifungal steroidal sulfates from a marine sponge of the genus Euryspongia” (J Nat Prod, 2007)
